Laboratory results as given in patent US6579967B1, “Receptor-selective somatostatin analogs” (The Salk Institute for Biological Studies, priority 1999, dated 2003).
“Also recorded” adds a separate entry of the source. Read-outs that look alike come from different tables or passages of the source.

What was measured:
Format in all cases: binding
human SSTR5 = target: T1, human SSTR5 (Homo sapiens, UniProt P35346); assay: Displacement of 125I-[Leu8,D-Trp22,Tyr25]-somatostatin-28 from cloned SSTR5 (receptor autoradiography on membrane pellets)
T1 construct: expressed in transfected cells; host or cells: CHO-K1 cells and CCL39 cells
Procedure: (§1) Generally, recombinant cells expressing the receptor are washed and homogenized to prepare a crude protein homogenate in a suitable buffer, as known in the art. In a typical assay, an amount of protein from the cell homogenate is placed into a small volume of an appropriate assay buffer at an appropriate pH. Candidate substances, such as potential SRIF agonists and antagonists, are added to the admixture in convenient concentrations, and the interaction between the candidate substance and the receptor polypeptide is monitored.
(§2) Receptor binding assays are performed on cloned SRIF receptors as generally set forth in Raynor et al. supra. Using such assays, one can generate KD values which are indicative of the concentration of a ligand necessary to occupy one-half (50%) of the binding sites on a selected amount of a receptor or the like, or alternatively, competitive assays can generate IC50 values which are indicative of the concentration of a competitive ligand necessary to displace a saturation concentration of a target ligand being measured from 50% of binding sites. The peptide des-AA^1,2,4,5,12,13-[D-Agl^8(Me,2-naphthoyl)]SRIF inhibits the binding to SSTR3 of an iodinated SRIF-28 ligand that has strong affinity for all five receptors.
(§3) In vitro Bioassay: The various somatostatin analogs are tested in vitro for their ability to bind to isolated cloned receptors expressed on CHO-K1 cells and CCL39 cells. CHO-K1 cells are grown in Ham's F-12 medium, and CCL39 cells are grown in Dulbecco's modified Eagle's medium/Ham's F-12(1:1) mix, supplemented with 10% fetal bovine serum, 100 U/ml penicillin and 100 μg/ml streptomycin, in humidified air containing 5% CO2 at 37° C.
(§4) Cells are washed twice with and scraped into ice-cold 0.05 M Tris-HCl (pH 7.4), collected by centrifugation, and homogenized using a rotor/stator slash system in the same buffer. After centrifugation at 120 g for 5 min. at 4° C., the supernatant is collected and centrifuged again at 48,000 g for 30 min. at 4° C. The resulting pellet is resuspended in ice-cold Tris buffer, transferred into a microfuge tube, and centrifuged at 20,000 g for 15 min. at 4° C. After withdrawal of the supernatant, the membrane pellet is stored at −80° C.
Receptor autoradiography is performed on 20 μm thick cryostat sections of the membrane pellets, mounted on microscope slides, and then stored at −20° C. For each of the tested compounds, complete displacement experiments are performed with the universal somatostatin ligand radioligand ^125I-[Leu^8,D-Trp^22,Tyr^25]-somatostatin-28 that binds with strong affinity to all five receptors. […] Unlabeled somatostatin-28 is run in parallel using the same increasing concentrations, as a control. IC50 values are calculated after quantification of the data using a computer-assisted image processing system as known in this art.
(§5) The potencies of certain SRIF analogs to inhibit radioligand binding of ^125I-[Leu^8,D-Trp^22,[…]]SRIF-28 to the various cloned SRIF receptors are shown in the following table wherein the IC50 values are given in nanomolar concentration.

human SSTR2 = target: T2, human SSTR2 (Homo sapiens, UniProt P30874); assay: Displacement of 125I-[Leu8,D-Trp22,Tyr25]-somatostatin-28 from cloned SSTR2 (receptor autoradiography on membrane pellets)
T2 construct: expressed in transfected cells; host or cells: CHO-K1 cells and CCL39 cells
Procedure: as §1
as §2, with “sites.” for “sites. The peptide des-AA^1,2,4,5,12,13-[D-Agl^8(Me,2-naphthoyl)]SRIF inhibits the binding to SSTR3 of an iodinated SRIF-28 ligand that has strong affinity for all five receptors.”
as §3, §4
(§6) Receptor autoradiography is performed on 20 μm thick cryostat sections of the membrane pellets, mounted on microscope slides, and then stored at −20° C. […] […] Unlabeled somatostatin-28 is run in parallel using the same increasing concentrations, as a control. IC50 values are calculated after quantification of the data using a computer-assisted image processing system as known in this art.

human SSTR3 = target: T3, human SSTR3 (Homo sapiens, UniProt P32745); assay: Displacement of 125I-[Leu8,D-Trp22,Tyr25]-somatostatin-28 from cloned SSTR3 (receptor autoradiography on membrane pellets); conditions: for relative potency at SSTR3 by comparison to SRIF-28: binding affinity relative to SRIF-28 (=1); for binding strength and selectivity for SSTR3, in words: qualitative statement
T3 construct: expressed in transfected cells; host or cells: CHO-K1 cells and CCL39 cells
Procedure: as §1, §2, §3, §4
Receptor autoradiography is performed on 20 μm thick cryostat sections of the membrane pellets, mounted on microscope slides, and then stored at −20° C. For each of the tested compounds, complete displacement experiments are performed with the universal somatostatin ligand radioligand ^125I-[Leu^8,D-Trp^22,Tyr^25]-somatostatin-28 that binds with strong affinity to all five receptors. Increasing concentrations of the unlabeled peptide are used ranging from 0.1-1000 nM. Unlabeled somatostatin-28 is run in parallel using the same increasing concentrations, as a control. IC50 values are calculated after quantification of the data using a computer-assisted image processing system as known in this art.
as §5

human SSTR1 = target: T4, human SSTR1 (Homo sapiens, UniProt P30872); assay: Displacement of 125I-[Leu8,D-Trp22,Tyr25]-somatostatin-28 from cloned SSTR1 (receptor autoradiography on membrane pellets)
T4 construct: expressed in transfected cells; host or cells: CHO-K1 cells and CCL39 cells
Procedure: as §1
as §2, with “sites.” for “sites. The peptide des-AA^1,2,4,5,12,13-[D-Agl^8(Me,2-naphthoyl)]SRIF inhibits the binding to SSTR3 of an iodinated SRIF-28 ligand that has strong affinity for all five receptors.”
as §3, §4, §6

human SSTR4 = target: T5, human SSTR4 (Homo sapiens, UniProt P31391); assay: Displacement of 125I-[Leu8,D-Trp22,Tyr25]-somatostatin-28 from cloned SSTR4 (receptor autoradiography on membrane pellets)
T5 construct: expressed in transfected cells; host or cells: CHO-K1 cells and CCL39 cells
Procedure: as §1
as §2, with “sites.” for “sites. The peptide des-AA^1,2,4,5,12,13-[D-Agl^8(Me,2-naphthoyl)]SRIF inhibits the binding to SSTR3 of an iodinated SRIF-28 ligand that has strong affinity for all five receptors.”
as §3, §4, §6

[1] = inhibition of 125I-[Leu8,D-Trp22,Tyr24]SRIF-28 binding, cloned receptor, read-out: IC50 (nM) mSSTR5
[2] = inhibition of 125I-[Leu8,D-Trp22,Tyr24]SRIF-28 binding, cloned receptor, read-out: IC50 (nM) mSSTR2
[3] = inhibition of 125I-[Leu8,D-Trp22,Tyr24]SRIF-28 binding, cloned receptor, read-out: IC50 (nM) mSSTR3
[4] = iodinated SRIF-28 ligand, cloned human receptor, read-out: IC50 at cloned human SSTR3
[5] = inhibition of 125I-[Leu8,D-Trp22,Tyr24]SRIF-28 binding, cloned receptor, read-out: IC50 (nM) mSSTR1
[6] = inhibition of 125I-[Leu8,D-Trp22,Tyr24]SRIF-28 binding, cloned receptor, read-out: IC50 (nM) mSSTR4

T5 sequence (P31391 whole entry): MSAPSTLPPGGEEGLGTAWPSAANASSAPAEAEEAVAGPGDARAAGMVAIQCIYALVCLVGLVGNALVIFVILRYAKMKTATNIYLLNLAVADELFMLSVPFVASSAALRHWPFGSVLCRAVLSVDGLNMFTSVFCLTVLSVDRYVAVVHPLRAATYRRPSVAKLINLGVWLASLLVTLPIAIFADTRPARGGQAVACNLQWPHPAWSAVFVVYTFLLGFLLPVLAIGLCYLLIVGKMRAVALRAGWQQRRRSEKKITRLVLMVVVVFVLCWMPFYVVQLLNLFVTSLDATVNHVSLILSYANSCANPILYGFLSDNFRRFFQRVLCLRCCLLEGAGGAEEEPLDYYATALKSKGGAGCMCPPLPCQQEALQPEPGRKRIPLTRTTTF
T3 sequence (P32745 whole entry): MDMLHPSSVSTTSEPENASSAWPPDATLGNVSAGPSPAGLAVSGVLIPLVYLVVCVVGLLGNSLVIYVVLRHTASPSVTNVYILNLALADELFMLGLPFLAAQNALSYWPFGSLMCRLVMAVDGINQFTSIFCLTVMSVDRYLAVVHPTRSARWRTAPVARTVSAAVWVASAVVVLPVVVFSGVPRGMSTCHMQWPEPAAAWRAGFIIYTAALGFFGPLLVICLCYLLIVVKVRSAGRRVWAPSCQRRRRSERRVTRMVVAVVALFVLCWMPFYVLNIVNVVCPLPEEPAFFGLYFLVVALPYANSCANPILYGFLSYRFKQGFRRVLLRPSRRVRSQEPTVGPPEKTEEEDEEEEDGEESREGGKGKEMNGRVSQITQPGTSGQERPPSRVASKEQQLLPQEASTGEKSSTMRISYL
T2 sequence (P30874 whole entry): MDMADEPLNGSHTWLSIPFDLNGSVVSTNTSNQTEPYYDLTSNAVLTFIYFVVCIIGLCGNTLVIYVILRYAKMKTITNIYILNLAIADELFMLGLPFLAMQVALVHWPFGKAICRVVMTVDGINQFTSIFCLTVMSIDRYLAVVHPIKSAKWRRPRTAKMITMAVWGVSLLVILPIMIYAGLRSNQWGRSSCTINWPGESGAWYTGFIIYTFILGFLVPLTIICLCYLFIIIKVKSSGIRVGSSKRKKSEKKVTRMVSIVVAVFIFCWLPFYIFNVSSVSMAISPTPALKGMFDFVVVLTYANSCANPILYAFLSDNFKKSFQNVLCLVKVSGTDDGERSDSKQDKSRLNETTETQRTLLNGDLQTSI
T1 sequence (P35346 whole entry): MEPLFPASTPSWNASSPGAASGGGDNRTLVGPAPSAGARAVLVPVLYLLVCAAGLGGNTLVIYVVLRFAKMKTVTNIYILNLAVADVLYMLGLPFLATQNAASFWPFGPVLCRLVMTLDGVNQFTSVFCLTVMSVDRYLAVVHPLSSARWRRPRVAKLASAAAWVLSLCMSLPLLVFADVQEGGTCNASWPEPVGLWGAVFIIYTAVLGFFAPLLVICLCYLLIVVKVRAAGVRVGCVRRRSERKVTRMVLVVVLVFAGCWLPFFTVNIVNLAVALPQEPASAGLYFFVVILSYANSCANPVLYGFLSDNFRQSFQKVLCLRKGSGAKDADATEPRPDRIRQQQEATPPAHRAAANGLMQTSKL
T4 sequence (P30872 whole entry): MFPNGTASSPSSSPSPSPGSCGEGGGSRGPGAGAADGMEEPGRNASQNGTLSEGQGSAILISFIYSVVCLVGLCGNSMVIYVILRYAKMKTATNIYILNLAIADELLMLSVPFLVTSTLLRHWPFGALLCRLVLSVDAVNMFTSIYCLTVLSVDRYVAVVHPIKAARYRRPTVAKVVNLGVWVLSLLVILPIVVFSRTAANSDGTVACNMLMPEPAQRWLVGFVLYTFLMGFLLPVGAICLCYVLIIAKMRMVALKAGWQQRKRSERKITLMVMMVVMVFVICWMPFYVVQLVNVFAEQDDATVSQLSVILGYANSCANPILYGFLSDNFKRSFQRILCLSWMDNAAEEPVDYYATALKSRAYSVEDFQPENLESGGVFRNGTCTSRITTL

| SMILES | IC50 (human SSTR5; [1]) [nM] | IC50 (human SSTR2; [2]) [nM] | relative potency at SSTR3 by comparison to SRIF-28 (human SSTR3) | IC50 (human SSTR3; [3]) [nM] | IC50 (human SSTR3; [4]) [nM] | binding strength and selectivity for SSTR3, in words (human SSTR3) | IC50 (human SSTR1; [5]) [nM] | IC50 (human SSTR4; [6]) [nM] | further results |
| --- | --- | --- | --- | --- | --- | --- | --- | --- | --- |
| C[C@@H](O)[C@@H]1NC(=O)[C@H](CCCCN)NC(=O)[C@@H](N(C)C(=O)c2ccc3ccccc3c2)NC(=O)[C@H](Cc2ccc(O)cc2)NC(=O)[C@H](Cc2ccccc2)NC(=O)[C@@H](N)CSSC[C@@H](C(=O)O)NC(=O)[C@H](Cc2ccccc2)NC1=O [Peptide No. 2, (cyclo)H-Cys-Phe-Tyr-D-Agl(Me,2Np)-Lys-Thr-Phe-Cys-OH] | > 10000 | > 10000 | about 0.13 | 70 ± 18 | ~70 | selectively bound to SSTR3 | > 10000 | > 1000 | effect on binding of the SRIF-28 radioligand to human SSTR5 (human SSTR5; peptide at 100 nM): minimal effects; effect on binding of the SRIF-28 radioligand to human SSTR2 (human SSTR2; peptide at 100 nM): minimal effects; binding strength and selectivity for SSTR3, in words (human SSTR3; listed as Peptide 2): bind strongly and selectively to SSTR3; effect on binding of the SRIF-28 radioligand to human SSTR1 (human SSTR1; peptide at 100 nM): minimal effects; effect on binding of the SRIF-28 radioligand to human SSTR4 (human SSTR4; peptide at 100 nM): minimal effects |
| C[C@@H](O)[C@@H]1NC(=O)[C@H](CCCCN)NC(=O)[C@@H](N(C)C(=O)c2ccc3ccccc3c2)NC(=O)[C@H](Cc2ccc(O)cc2)NC(=O)[C@H](Cc2ccccc2)NC(=O)[C@H](N)CSSC[C@@H](C(=O)O)NC(=O)[C@H](Cc2ccccc2)NC1=O [Peptide No. 2A, (cyclo 3-14)H-D-Cys-Phe-Tyr-D-Agl(Me,2Np)-Lys-Thr-Phe-Cys-OH] | > 10000 | > 10000 | about 0.24 | 39 ± 11 | ~39 | selectively binds to SSTR3 | > 10000 | > 10000 | binding strength and selectivity for SSTR3, in words (human SSTR3; listed as Peptide 2A): bind strongly and selectively to SSTR3 |
| C[C@@H](O)[C@@H]1NC(=O)[C@H](CCCCN)NC(=O)[C@@H](N(C)C(=O)c2ccc3ccccc3c2)NC(=O)[C@H](Cc2ccccc2)NC(=O)[C@H](Cc2ccccc2)NC(=O)[C@@H](N)CSSC[C@@H](C(=O)O)NC(=O)[C@H](Cc2ccccc2)NC1=O [Peptide No. 2B, (cyclo 3-14)H-Cys-Phe-Phe-D-Agl(Me,2Np)-Lys-Thr-Phe-Cys-OH] | > 10000 | > 10000 | about 0.13 | 70 ± 17 | ~70 | selectively binds to SSTR3 | > 10000 | > 10000 | IC50 (human SSTR5; iodinated SRIF-28 ligand, cloned human receptor, read-out: concentration below which no binding to human SSTR5): > 10000 nM; IC50 (human SSTR2; iodinated SRIF-28 ligand, cloned human receptor, read-out: concentration below which no binding to human SSTR2): > 10000 nM; IC50 at cloned human SSTR3 (human SSTR3; iodinated SRIF-28 ligand, cloned human receptor): about the same as No. 2; binding strength and selectivity for SSTR3, in words (human SSTR3; listed as Peptide 2B): bind strongly and selectively to SSTR3; IC50 (human SSTR1; iodinated SRIF-28 ligand, cloned human receptor, read-out: concentration below which no binding to human SSTR1): > 10000 nM; IC50 (human SSTR4; iodinated SRIF-28 ligand, cloned human receptor, read-out: concentration below which no binding to human SSTR4): > 1000 nM |
| C[C@@H](O)[C@@H]1NC(=O)[C@H](CCCCN)NC(=O)[C@@H](N(C)C(=O)c2ccc3ccccc3c2)NC(=O)[C@H](Cc2ccc(Cl)cc2)NC(=O)[C@H](Cc2ccccc2)NC(=O)[C@@H](N)CSSC[C@@H](C(=O)O)NC(=O)[C@H](Cc2ccccc2)NC1=O [Peptide No. 2C, (cyclo 3-14)H-Cys-Phe-4ClPhe-D-Agl(Me,2Np)-Lys-Thr-Phe-Cys-OH] | > 10000 | > 1000 |  | 300 |  |  | > 1000 | > 10000 | binding strength and selectivity for SSTR3, in words (human SSTR3; listed as Peptide 2C): bind strongly and selectively to SSTR3; also recorded: slightly less selective |

More lines, main results first:

| IC50 (human SSTR5; [1]) [nM] | IC50 (human SSTR2; [2]) [nM] | relative potency at SSTR3 by comparison to SRIF-28 (human SSTR3) | IC50 (human SSTR3; [3]) [nM] | IC50 (human SSTR3; [4]) [nM] | binding strength and selectivity for SSTR3, in words (human SSTR3) | IC50 (human SSTR1; [5]) [nM] | IC50 (human SSTR4; [6]) [nM] | SMILES | further results |
| --- | --- | --- | --- | --- | --- | --- | --- | --- | --- |
| > 1000 | > 10000 | about 0.08 | 115 ± 36 |  |  | > 10000 | > 10000 | C[C@@H](O)[C@@H]1NC(=O)[C@H](CCCCN)NC(=O)[C@@H](N(C)C(=O)c2ccc3ccccc3c2)NC(=O)[C@H](Cc2ccccc2)NC(=O)[C@H](Cc2ccccc2)NC(=O)[C@H](N)CSSC[C@@H](C(=O)O)NC(=O)[C@H](Cc2ccccc2)NC1=O [Peptide No. 2D, (cyclo 3-14)H-D-Cys-Phe-Phe-D-Agl(Me,2Np)-Lys-Thr-Phe-Cys-OH] | binding strength and selectivity for SSTR3, in words (human SSTR3; listed as Peptide 2D): bind strongly and selectively to SSTR3; also recorded: slightly less selective |
| > 1000 | > 1000 |  | 180 |  |  | > 1000 | > 10000 | C[C@@H](O)[C@@H]1NC(=O)[C@H](CCCCN)NC(=O)[C@@H](N(C)C(=O)c2ccc3ccccc3c2)NC(=O)[C@H](Cc2ccc(Cl)cc2)NC(=O)[C@H](Cc2ccccc2)NC(=O)[C@H](N)CSSC[C@@H](C(=O)O)NC(=O)[C@H](Cc2ccccc2)NC1=O [Peptide No. 2E, (cyclo 3-14)H-D-Cys-Phe-4ClPhe-D-Agl(Me,2Np)-Lys-Thr-Phe-Cys-OH] | binding strength and selectivity for SSTR3, in words (human SSTR3; listed as Peptide 2E): bind strongly and selectively to SSTR3; also recorded: slightly less selective |
